The source of these data is patent EP0336417A2, “Phosphonate initiators for light cured compositions” (DENTSPLY INTERNATIONAL, INC., priority 1988, dated 1989).

The data set in a line: Solubility of initiator in NCO/TEGDMA resin. The format is physicochemical. To be noted: not soluble above about 2%; percentages by weight. From the text: NCO/TEGDMA is a resin blend described in copending SN 040, 636 and used as illustrated in U.S. patent 4,514,174 and comprises a blend of NCO, the reaction product of hexamethylene diisocyanate (HMDI) and Bis-GMA [drawing 4] , and triethyleneglycol dimethacrylate (TEGDMA). At concentrations above about 2%, the benzoyl di (2,6 dimethylphenyl) phosphonate is not soluble in NCO/-TEGDMA resin. When used with an NCO/-TEGDMA resin in concentrations up to about 2%, however, the resin can be cured to a clear, hard film.

As to `Cc1cccc(C)c1OP(=O)(Oc1c(C)cccc1C)C(=O)c1ccccc1` [Benzoyl di-(2,6-dimethylphenyl) phosphonate], the “concentration up to which soluble in NCO/TEGDMA resin” value was “about 2%”.
